Measured values as given in patent publication US20240269139A1, “COMPOUNDS FOR TARGETED PROTEIN DEGRADATION OF KINASES” (DANA-FARBER CANCER INSTITUTE, INC., priority 2020, published 2024).

Test system: protein kinases (human kinome)
Format: cell-based
Conditions: for Total no. kinase hits: number of degraded kinases per library compound; for kinases the bifunctional compound degrades: as stated for the structure in the embodiments; for Kinase hits: kinases significantly downregulated vs DMSO (fold change cutoff −1.25, P-value<0.01), ≤8 h, 0.1-5 μM degrader, 7 cell lines
From the text: Although development of targeted protein degraders requires a POI binder, among already-liganded proteins such as kinases, it was hypothesized that different targets would have a different propensity for current approaches to degrader-mediated destruction, which was termed ‘degradability’. […] It was rationalized that the probability of identifying the same kinase as a false positive in multiple treatments is low, therefore this analysis served to also assess the robustness of our data and subsequent interpretations. […] Overall, 62 protein kinases were degraded in more than 10 independent treatments, and remarkably, 9 of these (CDK4, AURKA, FER, WEE1, BLK. LIMK2, CDK6, GAK, LIMK1) were each degraded in at least 40 of the 154 independent treatments, emphasizing their predisposition to induced degradation (FIG. 1G; Appendix I).
Next, the frequency of degradation assessment was corrected for over-representation of molecules in the full dataset by omitting replicate profiling of compounds under different experimental conditions, to remove any bias. […] Unsurprisingly, the top degradable kinases mirror those from the previous analysis (CDK4, AURKA, FER, WEE1, BLK), confirming that in sufficiently large datasets, even with over-representation of certain molecules, frequency of degradation is a good measure of general tractability.

| Compound | Total no. kinase hits | kinases the bifunctional compound degrades | Kinase hits | logFC (BTK (Q06187-2), experiment wp055) | logFC of BTK (Q06187-2) (Experiment wp055) |
| --- | --- | --- | --- | --- | --- |
| Cc1ccc(NC(=O)c2cccc(C(F)(F)F)c2)cc1N1Cc2cnc(Nc3ccc(N4CCN(CCCCCC(=O)N[C@H](C(=O)N5C[C@H](O)C[C@H]5C(=O)N[C@@H](C)c5ccc(-c6scnc6C)cc5)C(C)(C)C)CC4)nc3)nc2N(C)C1=O [DB1114, (2S,4R)-1-((S)-3,3-dimethyl-2-(6-(4-(5-((8-methyl-6-(2-methyl-5-(3-(trifluoromethyl)benzamido)phenyl)-7-oxo-5,6,7,8-tetrahydropyrimido[4,5-d]pyrimidin-2-yl)amino)pyridin-2-yl)piperazin-1-yl)hexanamido)butanoyl)-4-hydroxy-N—((S)-1-(4-(4-methylthiazol-5-yl)phenyl)ethyl)pyrrolidine-2-carboxamide] | 31 |  |  |  |  |
| CC(C)(C)c1cc(NC(=O)Nc2ccc(Oc3ccnc(C(=O)NCCOCCOCCNC(=O)CNc4cccc5c4C(=O)N(C4CCC(=O)NC4=O)C5=O)c3)cc2F)n(-c2ccc3ncccc3c2)n1 (centres unmarked) [TL13-178] |  | CDK4, LIMK1, MAP3K20, MAPK14, and MAST3 |  |  |  |
| Cc1cc(Nc2ncc(Cl)c(Nc3ccccc3S(=O)(=O)C(C)C)n2)c(OC(C)C)cc1C1CCN(CCOCCOCCNC(=O)CNc2cccc3c2C(=O)N(C2CCC(=O)NC2=O)C3=O)CC1 (centres unmarked) [TL13-112] | 3 |  | FER, PTK2, RPS6KA1 |  |  |
| C[C@@H]1C[C@@H](O)c2ncnc(N3CCN(C(=O)[C@H](CNCCCCCCCCCCc4cccc5c4C(=O)N(C4CCC(=O)NC4=O)C5=O)c4ccc(Cl)cc4)CC3)c21 (some centres unmarked) [INY-03-041-01] | 6 |  | AKT1, AKT2, AKT3, CDK4, MAPK6, STK17A |  |  |
| CCc1cnn2c(N(Cc3ccc(N)nc3)C(=O)CCOCCOCCOCCNC(=O)CNc3cccc4c3C(=O)N(C3CCC(=O)NC3=O)C4=O)cc(N3CCCC[C@H]3CCO)nc12 (some centres unmarked) [MFH-5-115-2] | 14 | CDK4. AURK4. WEE1. STK17A, PLK1, BUB1, TTK, UHMK1, MAP3K1, BUB1B, RIOK2, NUAK1, PIM2, and CSNK1A1 | CDK4, AURK4, WEE1, STK17A, PLK1, BUB1, TTK, UHMK1, MAP3K1, BUB1B, RIOK2, NUAK1, PIM2, CSNK1A1 |  |  |
| CC(C)S(=O)(=O)c1ccccc1Nc1nc(Nc2ccc(N3CCN(CCOCCOCCOCCNC(=O)CNc4cccc5c4C(=O)N(C4CCC(=O)NC4=O)C5=O)CC3)cc2)ncc1Cl (centres unmarked) [SK-3-87, N-(2-(2-(2-(2-(4-(4-((5-chloro-4-((2-(isopropylsulfonyl)phenyl)amino)pyrimidin-2-yl)amino)phenyl)piperazin-1-yl)ethoxy)ethoxy)ethoxy)ethyl)-2-((2-(2,6-dioxopiperidin-3-yl)-1,3-dioxoisoindolin-4-yl)amino)acetamide] | 15 | AAK1, AURKA, BLK, CDK12, CDK17, CDK2, CDK5, CDK7, CDK9, FER, ITK, LCK, LIMK2, PTK2B, and WEE1 | AAK1, AURKA, BLK, CDK12, CDK17, CDK2, CDK5, CDK7, CDK9, FER, ITK, LCK, LIMK2, PTK2B, WEE1 |  |  |
| CN1c2ccccc2C(=O)Nc2cnc(Nc3ccc(N4CCN(C(=O)CCOCCNc5cccc6c5C(=O)N(C5CCC(=O)NC5=O)C6=O)CC4)cc3)nc21 (centres unmarked) [ZNL-03-127] | 5 | BLK, LIMK1, LIMK2, STK17A, and TNK2 | BLK LIMK1, LIMK2 STK17A, TNK2 |  |  |
| Cc1c(NC(=O)c2ccc(C(C)(C)C)cc2)cccc1-c1cn(C)c(=O)c(Nc2ccc(C(=O)N3CCN(CCCCCCNC(=O)CNc4cccc5c4C(=O)N(C4CCC(=O)NC4=O)C5=O)CC3)cc2)n1 (centres unmarked) [DD-03-171] | 1 |  | BTK |  |  |
| CS(=O)(=O)c1ccc(-c2cccn3nc(Nc4cccc(N5CCN(CCCCCCNC(=O)COc6cccc7c6C(=O)N(C6CCC(=O)NC6=O)C7=O)CC5)c4)nc23)cc1 (centres unmarked) [JWG-120] | 2 | AAK1 and AURKA | AAK1, AURKA |  |  |
| C=CCn1c(=O)c2cnc(Nc3ccc(N4CCN(CCCNc5cccc6c5C(=O)N(C5CCC(=O)NC5=O)C6=O)CC4)cc3)nc2n1-c1cccc(C(C)(C)O)n1 (centres unmarked) [ZNL-02-096] | 9 |  | COQ8A, MKNK2, PAK4, PDK1, PDK2, PDK3, PRKCI, TBCK, WEE1 |  |  |
| Cc1c(NC(=O)c2ccc(C(C)(C)C)cc2)cccc1-c1cn(C)c(=O)c(Nc2ccc(C(=O)N3CCN(CCCCCCNC(=O)COc4cccc5c4C(=O)N(C4CCC(=O)NC4=O)C5=O)CC3)cc2)n1 (centres unmarked) [DD.04.118] |  |  |  | −3.263 | −3.263 |
| NC(=O)c1c(F)cccc1Nc1nc(Nc2ccc(S(=O)(=O)NCCOCCOCCOCCOCCNc3cccc4c3C(=O)N(C3CCC(=O)NC3=O)C4=O)cc2)ncc1Br (centres unmarked) [TMX-02-138] | 28 |  | AAKI, AURKA, AURKB, CDK1, CDK12, CDK16, CDK17, CDK2, CDK5, CDK7, CDK9, CLK1, FER, GSK3A, GSK3B, IRAK3, MAPSK11, MAPK8, MAPK9, NUAK1, PRKAA1, PRKAA2, PTK2B, RPS6KA1, RPS6KA3, STK33, STK38, TTK |  |  |
| O=C(COc1cccc2c1C(=O)N(C1CCC(=O)NC1=O)C2=O)NCCCCCCCC(=O)NC1(c2ccc(-c3nc4ccn5c(=O)[nH]nc5c4cc3-c3ccccc3)cc2)CCC1 (centres unmarked) [INY-01-140-1] | 3 | PDK1, PDK2, and PDK3 | PDK1, PDK2, PDK3 |  |  |
| CN(C)C(=O)c1cc2cnc(Nc3ccc(N4CCN(CCCCNC(=O)COc5cccc6c5C(=O)N(C5CCC(=O)NC5=O)C6=O)CC4)cn3)nc2n1C1CCCC1 (centres unmarked) [BSJ-04-132] | 3 |  | BCKDK, CDK4, CDK6, COQ8A, PDK1, PDK2, PDK3, |  |  |
| Cc1cnc(Nc2ccc(N3CCN(CCOCCOCCNC(=O)COc4cccc5c4C(=O)N(C4CCC(=O)NC4=O)C5=O)CC3)cc2)nc1Nc1cccc(S(=O)(=O)NC(C)(C)C)c1 (centres unmarked) [JWG-118] | 5 | AAK1, AURKA, BMP2K, GAK, and WEE1 | AAK1, AURKA, BMP2K, GAK, WEE1 |  |  |
| C[C@@H]1C[C@@H](O)c2ncnc(N3CCN(C(=O)[C@H](CNCCCCCCCCNC(=O)COc4cccc5c4C(=O)N(C4CCC(=O)NC4=O)C5=O)c4ccc(Cl)cc4)CC3)c21 (some centres unmarked) [INY-02-164] | 5 |  | AKT1, AKT2, AKT3, BCKDK, PDK1 |  |  |
| CC(C)S(=O)(=O)c1ccccc1Nc1nc(Nc2ccc(N3CCN(CCOCCOCCC(=O)NCCNc4cccc5c4CN(C4CCC(=O)NC4=O)C5=O)CC3)cc2)ncc1Cl (centres unmarked) [TL13-97, 3-(2-(2-(4-(4-((5-chloro-4-((2-(isopropylsulfonyl)phenyl)amino)pyrimidin-2-yl)amino)phenyl)piperazin-1-yl)ethoxy)ethoxy)-N-(2-((2-(2,6-dioxopiperidin-3-yl)-1-1722 oxoisoindolin-4-yl)amino)ethyl)propenamide] | 32 | AAK1, ABL2, AURKA, AURKB, BLK, BUB1B, CDK13, CDK17, CDK2, CDK4, CDK5. CDK6. CDK7. CDK9. FER, ITK, LCK, LIMK1, LIMK2, MAP3K11, MARK4, PLK4, PRKAA1, RPS6KA1, SRC. STK10, STK38, TEC, TNK2, ULK1, ULK3, and WEE1 | AAK1, ABL2, AURKA, AURKB, BLK, BUB1B, CDK13, CDK17, CDK2, CDK4, CDK5, CDK6, CDK7, CDK9, FER, ITK, LCK, LIMK1, LIMK2, MAP3K11, MARK4, PLK4, PRKAA1, RPS6KA1, SRC, STK10, STK38, TEC, TNK2, ULK1, ULK3, WEE1 |  |  |
| Nc1ncc(-c2ccc(S(=O)(=O)N(CCCNC(=O)CCOCCOCCOCCOCCOCCNc3cccc4c3C(=O)N(C3CCC(=O)NC3=O)C4=O)C3CC3)cc2F)cc1-c1ccc2c(c1)CCNC2=O (centres unmarked) [WH-9533-153, N-(3-((4-(6-amino-5-(1-oxo-1,2,3,4-tetrahydroisoquinolin-6-yl)pyridin-3-yl)-N-cyclopropyl-3-fluorophenyl)sulfonamido)propyl)-1-((2-(2,6-dioxopiperidin-3-yl)-1,3-dioxoisoindolin-4-yl)amino)-3,6,9,12,15-pentaoxaoctadecan-18-amide] | 13 |  | CDK14, CSNK1D, GSK3A, GSK3B, NUAK1, PIM2, STK17B, STK35, STK4 |  |  |
| O=C(COc1cccc2c1C(=O)N(C1CCC(=O)NC1=O)C2=O)NCCCCCCCN1CCc2cc(Nc3ncc(C4CC4)c(NCCCNC(=O)C4CCC4)n3)ccc2C1 (centres unmarked) [BSJ-04-178] | 16 | AAK1, AURKA, AURKB. BMP2K, CDK10, CDK9, GAK, MARK2, MARK3, MARK4, SIK2, STK17A, STK17B, SNRK, ULK1, and WEE1 | AAK1, AURKA, AURKB, BMP2K, CDK10, CDK9, GAK, MARK2, MARK3, MARK4, SIK2, STKI7A, STK17B, SNRK, ULK1, WEE1 |  |  |
| Cc1ncsc1-c1ccc([C@H](C)NC(=O)[C@@H]2C[C@@H](O)CN2C(=O)[C@@H](NC(=O)CCOCCOCCOCCN2CCC(C(=O)Nc3ncc(SCc4ncc(C(C)(C)C)o4)s3)CC2)C(C)(C)C)cc1 [ZZ-1-31B] | 2 |  | CDK9, CLK1 |  |  |
| Cc1cnc(Nc2ccc(N3CCN(CCOCCOCCC(=O)N[C@H](C(=O)N4C[C@H](O)C[C@H]4C(=O)N[C@@H](C)c4ccc(-c5scnc5C)cc4)C(C)(C)C)CC3)cc2)nc1Nc1cccc(S(=O)(=O)NC(C)(C)C)c1 [JWG-122] | 2 | AAK1 and GAK | AAK1, GAK |  |  |
| COc1cc(N2CCN(CCOCCOCCNC(=O)CNc3cccc4c3C(=O)N(C3CCC(=O)NC3=O)C4=O)CC2)ccc1Nc1ncc(Cl)c(Nc2ccccc2S(=O)(=O)C(C)C)n1 (centres unmarked) [TL13-12] | 3 |  | AURKA, FER, PRK2 |  |  |
| Cc1ccc(C(=O)Nc2ccc(CN3CCN(CCOCCOCCNC(=O)CNc4cccc5c4C(=O)N(C4CCC(=O)NC4=O)C5=O)CC3)c(C(F)(F)F)c2)cc1C#Cc1cnc2cccnn12 (centres unmarked) [TL13-150] | 10 |  | BLK, CDK5, FER, GAK, IRAK1, LCK, MAP4K2, MAPK14, RIPK1, SRC |  |  |
